# Measured values from PMC12195250, “Synthesis, Biological Evaluation, Molecular Dynamics, and QM-MM Calculation of Spiro-Acridine Derivatives Against Leishmaniasis” (Microorganisms, 2025).
# Read-outs that look alike come from different tables or passages of the source.
# Legend:
# [1] = tested on: human red blood peripheral cells (O+); assay: Hemocompatibility (hemolysis) in red blood cells; format: cell-based; conditions: 1 h at 37 °C
# Protocol: The hemocompatibility of the spiro-acridine derivatives was determined using human red blood peripheral cells (O+) from healthy adults. The erythrocytes were diluted in phosphate-buffered saline (PBS) to a concentration of 5% in an 80 µL suspension and subsequently incubated with 20 µL of different concentrations of spiro-acridine derivatives and Amphotericin B® (400, 200, 100, 50, 25, 12,5, 6,25 and 3,12 μg/mL). Afterward, the samples were incubated for 1 h at 37 °C in a B.O.D incubator, and the reaction was stopped by adding 200 μL of PBS (1.5 mM KH2PO4, 8.1 mM Na2HPO4, 136.9 mM NaCl, and 2.6 mM KCl, pH 7.2). The samples were centrifuged at 2000 rpm for 10 min, at room temperature. The supernatants were collected and subjected to spectrophotometry using a spectrophotometer (model Biosystems ELx800, Curitiba, PR, Brazil) at 540 nm. The hemolysis percentage was determined as [(Abssam − Abscon)/(Abstot − Abscon) × 100], where Abssam refers to the absorbance of the sample, Abscon to the absorbance of the blank control (without compounds), and Abstot to the absorbance of total hemolysis (obtained by replacing the sample solution with an equal volume of Milli-Q water). The results were expressed as average hemolytic concentration (HC50), considering the positive control as 100% hemolysis.
# [2] = tested on: L. infantum promastigotes (Strain MHOM/BR/70/BH46); assay: Anti-promastigote effect, Neubauer chamber counting; format: cell-based, Leishmania infantum; conditions: 72 h incubation, read-out: L. infantum IC50PRO
# Protocol: (§1) The promastigote cultures of L. infantum (Strain MHOM/BR/70/BH46) and L. amazonensis (Strain MHOM/BR/PH8) were kept in Schneider medium (Sigma-Aldrich, St. Louis, MO, USA) supplemented with 20% fetal bovine serum (FBS) and 1% streptomycin/penicillin in a B.O.D. incubator (J. Prolab, model JP. 100 LBCM/CPAM) at 26 °C. The promastigote strains were used in the exponential growth phase in all stages for experimental purposes.
# (§2) The Neubauer chamber method was used to assess the inhibitory concentrations of the synthesized spiro-acridines capable of eliminating 50% of the promastigotes in cultures of L. amazonensis and L. infantum (IC50) strains. Promastigotes from both species were collected, counted, and diluted in Schneider’s medium (Sigma-Aldrich, St. Louis, MO, USA) supplemented with 20% fetal bovine serum (FBS) at a final concentration of 1 × 10^6 cells/mL. The evaluated promastigotes were then exposed to different concentrations of the tested compounds (10, 5, 2.5, 1.25, and 0.625 μg/mL). The positive control used the commercial drug Amphotericin B®, while the negative control consisted of promastigotes incubated in Schneider’s medium alone. After 72 h of incubation at 25 °C, culture growth was observed by counting the viable cells using a Neubauer chamber and calculated using the following Equation (1): No. Leishmania/mL = No. of cells counted × No. of Neubauer chamber(1) quadrants × the dilution used × 10^4 (Neubauer chamber correction factor)
# (§3) The concentration parameter that inhibits 50% of parasite growth (IC50) was used to estimate the growth inhibition of the promastigote species of Leishmania sp. Thus, IC50 was determined by linear regression analysis with SPSS 8.0 software for Windows. Each test was performed in two independent experiments, with different cultures and in technical triplicate.
# [3] = tested on: L. amazonensis promastigotes (Strain MHOM/BR/PH8); assay: as above; format: cell-based, Leishmania amazonensis; conditions: 72 h incubation, read-out: L. amazonensis IC50PRO
# Protocol: as §1, §2, §3
# [4] = tested on: L. infantum promastigote forms; parameters: method as in PMID 34311084; conditions: cited from earlier work
# [5] = tested on: L. amazonensis axenic amastigotes; assay: Anti-amastigote effect on axenic amastigotes, MTT; format: cell-based, Leishmania amazonensis
# Protocol: The amastigote forms of L. amazonensis were maintained under cryopreservation until they were transferred to an NNN medium (Novy–MacNeal–Nicolle) and incubated at 26 °C until the parasites reached the log growth phase. Subsequently, the suspension was transferred to Schneider culture medium (Sigma-Aldrich, St. Louis, MO, USA), supplemented with 20% inactivated fetal bovine serum and 0.2% gentamicin sulfate at 26 °C, causing the parasites to return to the log growth phase. The cultures were then maintained at 37 °C, producing a growth curve and the formation of the axenic amastigote strains.
# The concentrations of the compounds AMTAC-02 and ACMD-03 capable of eliminating 50% of the cells in the cultures of L. amazonensis amastigotes (IC50) were determined using the MTT [3-(4,5-dimethylthiazol-2-yl)-2,5-diphenyltetrazolium bromide] (Sigma-Aldrich) reagent. In a 96-well plate, the assay was initiated by diluting both compounds to concentrations of 2, 4, 8, 16, and 32 μg/mL and 2.0 × 10^5 axenic amastigotes per well. The plates were incubated at 37 °C for 24 h. Then, 10 μL of MTT was added per well, and the cultures were re-incubated for 4 h. Subsequently, 50 μL of dimethyl sulfoxide was added to each well to solubilize the formazan crystals formed. The absorbances were measured using a SpectraMAX GeminiXS plate spectrophotometer (Molecular Devices LLC) at a wavelength of 570 nm. The negative control consisted of untreated cells, while the positive control was assessed by incubating the axenic amastigotes with the reference drug Amphotericin B® [13].
# [6] = Cytotoxic effect in J774 macrophage cultures, MTT; format: cell-based; conditions: mouse, J774A.1 macrophages, read-out: CC50 (50% cytotoxic concentration in J774 macrophage)
# Protocol: J774A.1 macrophages (ATCC TIB-67) were kept cryopreserved in a Falcon tube containing 5 mL of DMEM (Dulbecco’s modified Eagle medium) culture medium (Gibco®), supplemented with 10% inactivated fetal bovine serum, 1% non-essential amino acids, and 1% gentamicin sulfate. The tube was centrifuged at 200 rpm for 10 min. Afterward, the supernatant was discarded, and the cells were resuspended in the culture medium and transferred to a culture bottle kept in an incubator at 37 °C with 5% CO2. The assays were carried out in triplicate using a 96-well plate to evaluate the cytotoxic effect of the selected spiro-acridine compounds on J774 macrophage cultures. The compounds were diluted and seeded at predetermined concentrations (32, 16, 8, 4, and 2 μg/mL), parallel to the distribution of 1.0 × 10^5 J774 macrophages per well. The plate was incubated for two hours in a 5% CO2 incubator at 37 °C. Only the cells were incubated in the negative control without the tested molecules. In contrast, the positive control was performed by incubating the macrophages with the commercial drug Amphotericin B®. Later, 10 μL of the MTT reagent was added per well, and the cultures were re-incubated for 4 h. Finally, 50 μL of DMSO was added to each well, and the absorbance was read on a SpectraMAX GeminiXS plate spectrophotometer (Molecular Devices LLC, San Jose, CA, USA) at a wavelength of 570 nm. […]
# [7] = tested on: L. amazonensis promastigotes; parameters: method as in PMID 33765552; conditions: cited from earlier work
# [8] = tested on: L. brasiliensis axenic amastigotes; parameters: method as in PMID 33168414; conditions: cited from earlier work
# [9] = tested on: L. brasiliensis promastigotes; parameters: method as in PMID 33168414; conditions: cited from earlier work
compound,measurement,setting,value
"N#CC1=CC2(c3ccccc3Nc3ccccc32)N(c2ccccc2)C1=O [ACMD-01, (E)5′-oxo-1′-phenyl-1′, 5′-dihydro-10H-spiro{acridine-9,2′-pyrrole]-4′-carbonitrile]",HC50 (concentration capable of promoting 50% hemolysis),[1],>400 µM
same,IC50,[2]; Leishmania infantum,3.9 µM
"COc1ccc(N2C(=O)C(C#N)=CC23c2ccccc2Nc2ccccc23)cc1 [ACMD-06, (E)1′-(4-methoxyphenyl)-5′-oxo-1′, 5′-dihydro-10H-spiro{acridine-9,2′-pyrrole]-4′-carbonitrile]",IC50,[3],235 µM
same,HC50 (concentration capable of promoting 50% hemolysis),[1],>400 µM
same,IC50,[2],3.5 µM
"N#CC1=CC2(c3ccccc3Nc3ccccc32)N(/N=C/c2ccccc2)C1=O [AMTAC-01, (E)-1′-(benzylideneamino)-5′-oxo-1′,5′-dihydro-10H-spiro[acridine-9,2′-pyrrole]-4′-carbonitrile]",IC50 against the promastigote forms,[4],2.039 µg/mL
same,IC50,[3]; Leishmania amazonensis,1.23 µM
same,HC50 (concentration capable of promoting 50% hemolysis),[1],>400 µM
same,IC50,[2]; Leishmania infantum,6.27 µM
"N#CC1=CC2(c3ccccc3Nc3ccccc32)N(/N=C/c2ccc(Cl)cc2)C1=O [AMTAC-06, (E)1-(4-chlorobenzylideneamino)-5-oxo-1,5-dihydro-10H-spiro[acridine-9,2-pyrrole]-4-carbonitrile]",IC50,[3],0.75 µM
same,HC50 (concentration capable of promoting 50% hemolysis),[1],>400 µM
same,IC50,[2],13.8 µM
"C[C@@H]1[C@H](O)[C@@H](C)/C=C/C=C/C=C/C=C/C=C/C=C/C=C/[C@H](O[C@@H]2O[C@H](C)[C@@H](O)[C@H](N)[C@@H]2O)C[C@@H]2O[C@](O)(C[C@@H](O)C[C@@H](O)[C@H](O)CC[C@@H](O)C[C@@H](O)CC(=O)O[C@H]1C)C[C@H](O)[C@H]2C(=O)O [ANFO B, Amphotericin B, reference compound]",SI (selectivity index),[5]; J774 macrophage CC50 versus L. amazonensis axenic amastigote IC50AMA,2.8
same,IC50,"[5]; Leishmania amazonensis, 24 h, L. amazonensis axenic amastigotes, MTT",1.08 µM
same,CC50 at 2 h,[6],3.09 µM
same,IC50,[3]; Leishmania amazonensis,1.53 µM
same,HC50 (concentration capable of promoting 50% hemolysis),[1],24.25 µM
same,IC50,[2]; Leishmania infantum,0.05 µM
"CC1=CC(=O)[C@H]2C(C)(C)CCC[C@]2(C)[C@@]1(O)CCc1ccoc1 [SOL, solidagenone]",IC50,[7],34.5 µM
cordiaquinone E [CORe],IC50,[8],2.89 ± 0.11 µM
same,IC50,[9],4.5 ± 0.3 µM
